# Like-named read-outs stand apart in the source and are kept apart here.
# Assays:
# [1] = system: Giardia lamblia; assay: in vitro growth inhibitory activity against Giardia lamblia; assay type: cell-based; conditions: Giardia duodenalis; concentration required to inhibit growth by 50%
# Method: 35, pp. 2198-2202 (1991). EC50 values for test compounds, expressed in parts per million (ppm), were calculated from dose response curves and are presented in Table 4. As used herein, the terminology "EC50" means the concentration of test compound required to inhibit growth by 50% are compared to a control lacking the test compound. Metronidazole was included as a standard in the tests for comparative purposes.
# [2] = system: Leishmania major; assay: in vitro growth inhibitory activity against L. major promastigotes; assay type: cell-based
# Excerpt: 35, pp. 2198-2202 (1991).
# [3] = system: Tetrahymena pyriformis; assay: in vitro growth inhibitory activity against the ciliate Tetrahymena pyriformis; assay type: cell-based, Tetrahymena pyriformis (ATCC strain 30005); conditions: read-out: EC50 Tetrahymena pyriformis
# Method: Compounds were evaluated for in vitro growth inhibitory activity against the ciliate Tetrahymena pyriformis, which was used as an indicator organism for the Apicomplexia since by several criteria the ciliates and Apicomplexa are closely related (Edlind T. D. et al., Mol. Phylogenet. Evol. vol. 5, pp. 359-367, 1996). T. pyriformis (ATCC strain 30005) was grown in 1 ml ATCC medium 357 at 25° C. in 4 ml polyallomer culture tubes without shaking. Compounds were dissolved in dimethylsufoxide (DMSO) and added to the cultures (containing 3,000 cells/ml) such that the final DMSO concentration was 0.1-0.3%. […] Parasitol. vol. 84, pp. 355-370, 1996) and Cryptosporidium parvum (Arrowood et al., FEMS Microbial. Lett., vol. 136, pp. 245-249, 1996) were tested for comparison.
# [4] = system: Toxoplasma gondii; assay: growth inhibition of T. gondii in L929 host cells ([3H]-uracil incorporation); assay type: cell-based; conditions: L929 host cells; for inhibition at 5 µg/mL / inhibition at 0.5 µg/mL: Toxoplasma gondii, read-out: % Inhibition
# Method: (§1) Compounds were tested for it vitro growth inhibitory activity against Toxoplasma gondii replication in L929 (L929-ATCC CCL 1, mouse connective tissue) or HFF (human foreskin fibroblast) host cells using the [^3 H]-uracil incorporation technique as follows. Host cells were grown in 96-well flat-bottom microtiter plates at 37° C in a 5% carbon dioxide environment in modified Eagle's medium containing penicillin, streptomycin and 10% fetal equine serum. Wells containing a homogeneous confluent monolayer of host cells were infected with T. gondii tachyzoites at a ratio of 3 parasites per cell (approximately 6×10^4 tachyzoites per well containing 100 μl of medium). […] Two hours post infection, the cultures were washed to remove free parasites and the various dilutions of test compound were added. Cells were subsequently collected at 24, 48 and 72 hours. Four hours prior to each harvesting 50 Al of [^3 H]-uracil (1 μCi) was added. Cells were collected using a cell harvester and incorporated radioactivity was measured using a scintillation counter. […]
# [5] = system: Toxoplasma gondii; assay: growth inhibition of T. gondii in HFF host cells ([3H]-uracil incorporation); assay type: cell-based; conditions: HFF host cells; for inhibition at 0.5 µg/mL / inhibition at 5 µg/mL: Toxoplasma gondii, read-out: % Inhibition
# Method: as §1
# [6] = cytotoxicity towards L929 host cells (Cell Titer 96); conditions: mouse, % Inhibition of host cell growth (values in parenthesis)
# Method: (§2) Cytotoxicity of the test compounds towards host cells was determined using the Cell Titer 96™ it (Promega Corporation, Madison, Wis.) as follows. Cells were seeded at a concentration of 5×10^3 cells per well containing 100 μl of medium in 96-well flat-bottom microtiter plates and incubated at 37° C. in a 5% carbon dioxide environment for 4 hours. Dilutions of the test compounds prepared as described above were then added, and incubation continued for 24, 48 or 72 hours. Four hours before each of these time points the growth medium containing test compound was replaced with 100 μl of fresh medium followed by addition of 16 μl of the kit dye solution. After incubation at 37° C. for another 4 hours, 100 μl of the kit solubilization/stop solution was added to each well, the contents of the wells were mixed and the plates kept 1 hour at room temperature. The plates were then read spectrophotometrically in a plate reader at a wavelength of 570 nm. […] Atovaquone was included in the test as a standard.
# [7] = cytotoxicity towards HFF host cells (Cell Titer 96); conditions: human, % Inhibition of host cell growth (values in parenthesis)
# Method: as §2
# [8] = system: Cryptosporidium parvum; assay: growth inhibitory activity against C. parvum in host MDBKF5D2 cells (immunofluorescence); assay type: cell-based; conditions: for % Inhibition: 48 hours
# Method: (§3) Compounds were tested for in vitro growth inhibitory activity against C. parvum grown in host MDBKF5D2 cells and for toxicity towards the host cells as follows. […] To test for toxicity towards the host cells, the media containing test compound (200 μl) were introduced into two wells of a 96 well microtiter plate containing confluent MDBKF5D2 cell monolayers and two wells without monolayers, and incubated at 37° C. in an 8% carbon dioxide environment. After 48 hours, the tetrazolium salt MTS (Owen's solution) and phenazine methosulfate were added to each well at concentrations of 333 μg/ml and 25 μM, respectively. The plate was returned to the incubator in the dark to develop for 2 hours, then 100 μl of each supernatant was transferred to a new microtiter plate and read spectrophotometrically in a plate reader at a wavelength of 490 nm. Percent toxicity was calculated by subtracting the mean optical density (OD) of the drug supernatants from the OD of medium control supernatants (no drug), dividing by the OD of the medium control, and multiplying by 100. To test for growth inhibitory activity against C. parvum, 3×10^4 oocysts per well were incubated in mentioned concentrations of each drug at 37° C. (8% CO2) on confluent MDBKF5D2 cell monolayers in 96 well microtiter plates. After 48 hours, the level of infection in each well was determined by means of an immunofluorescence assay. Percent inhibition of growth was calculated by subtracting the mean parasite count in the wells containing test compound from the mean parasite count in the medium control wells (no test compound), dividing by the mean parasite count in the medium control wells, and multiplying by 100. Paromomycin was included in the test as a standard.
# [9] = toxicity towards MDBKF5D2 host cells (MTS); conditions: bovine, mdbkf5d2 cells, Cytotoxicity (percent toxicity)
# Method: as §3
# [10] = system: MDBKF5D2 cells; assay: toxicity towards MDBKF5D2 host cells (MTS); conditions: 48 hours, 2880 min
# Method: as §3
# [11] = L929, 48 h, 5.0 μg/ml, 48 hours
# [12] = L929, 72 h, 5.0 μg/ml, 72 hours
# [13] = Cryptosporidium parvum, 48 h, 0.1 μM
# [14] = Cryptosporidium parvum, 48 h, 1.0 μM
compound,measurement,setting,value
CCC(C)(NC(=O)c1cc(Cl)cc(Cl)c1)C(=O)C(Br)Br (stereo not drawn) [Compound 4],EC50,[1],0.3 µg/mL
same,EC50,[2],0.2 µg/mL
same,EC50,"[3]; 24 hours, 25° C.",0.1 µg/mL
CCC(C)(NC(=O)c1cc(Cl)cc(Cl)c1)C(=O)CCl (stereo not drawn) [Compound 5],EC50,[1],0.02 µg/mL
same,EC50,[2],0.06 µg/mL
same,EC50,"[3]; 24 hours, 25° C.",0.003 µg/mL
same,% Inhibition,"[4]; 0.5 μg/ml, 24 hours",39.2%
same,% Inhibition,"[4]; 0.5 μg/ml, 48 hours",64.7%
same,% Inhibition,"[4]; 0.5 μg/ml, 72 hours",44.1%
same,% Inhibition,"[4]; 5.0 μg/ml, 24 hours",3.3%
same,inhibition at 5 µg/mL,[4]; [11],69.2%
same,inhibition at 5 µg/mL,[4]; [12],84%
same,% Inhibition,"[5]; 0.5 μg/ml, 48 hours",97.6%
same,% Inhibition,"[5]; 0.5 μg/ml, 72 hours",80.2%
same,inhibition at 0.5 µg/mL,"[5]; 24 h, 0.5 μg/ml, 24 hours",55.9%
same,inhibition at 5 µg/mL,"[5]; 24 h, 5.0 μg/ml, 24 hours",89%
same,inhibition at 5 µg/mL,"[5]; 48 h, 5.0 μg/ml, 48 hours",100%
same,inhibition at 5 µg/mL,"[5]; 72 h, 5.0 μg/ml, 72 hours",99.6%
same,inhibition at 48 h,"[6]; L929, 0.5 μg/ml",0%
same,inhibition at 72 h,"[6]; L929, 0.5 μg/ml",0%
same,inhibition at 48 h,"[6]; L929, 5.0 μg/ml",66.8%
same,inhibition at 72 h,"[6]; L929, 5.0 μg/ml",91.2%
same,inhibition at 48 h,[7]; 0.5 μg/ml,5.3%
same,inhibition at 24 h,[7]; 5.0 μg/ml,8%
same,inhibition at 72 h,[7]; 5.0 μg/ml,39.6%
same,% Inhibition,[8]; 10 μM,34.1%
same,inhibition at 0.1 µM,[8]; [13],10%
same,inhibition at 1 µM,[8]; [14],17.4%
same,"cytotoxicity at 48 h, 100 µM",[9],72.6%
same,Cytotoxicity (percent toxicity),[10]; 0.1 μM,18.8%
same,Cytotoxicity (percent toxicity),[10]; 1.0 μM,6.7%
same,Cytotoxicity (percent toxicity),[10]; 10 μM,31.4%
"CCC(C)(NC(=O)c1cc(Cl)c(N)c(C=NOC)c1)C(=O)CCl (stereo not drawn) [Compound 6, 4-amino-3-chloro-5-methoxyiminomethyl-N-(3-chloro-1-ethyl-1-methyl-2-oxopropyl)benzamide]",EC50,[1],0.009 µg/mL
same,EC50,[2],0.6 µg/mL
same,EC50,"[3]; 24 hours, 25° C.",0.02 µg/mL
CCC(C)(NC(=O)c1cc(Cl)cc(Cl)c1)C(=O)CSC#N (stereo not drawn) [Compound 7],EC50,[1],0.05 µg/mL
same,EC50,[2],0.6 µg/mL
same,EC50,"[3]; 24 hours, 25° C.",0.07 µg/mL
CCC(C)(NC(=O)c1cc(Cl)cc(Cl)c1)C(=O)CN=C=S (stereo not drawn) [Compound 8],EC50,[1],0.2 µg/mL
same,EC50,[2],0.7 µg/mL
same,EC50,[3]; 24 h,0.07 µg/mL
CCC(C)(NC(=O)c1cc(Cl)cc(Cl)c1)C(=O)CCl (stereo not drawn) [Compound 13],% Inhibition,"[4]; 0.5 μg/ml, 24 hours",11.6%
same,% Inhibition,"[4]; 0.5 μg/ml, 48 hours",33.2%
same,% Inhibition,"[4]; 0.5 μg/ml, 72 hours",0%
same,% Inhibition,"[4]; 5.0 μg/ml, 24 hours",11.4%
same,% Inhibition,"[4]; 5.0 μg/ml, 48 hours",83.9%
same,% Inhibition,"[4]; 5.0 μg/ml, 72 hours",88.5%
same,% Inhibition,"[5]; 0.5 μg/ml, 24 hours",72.3%
same,% Inhibition,"[5]; 0.5 μg/ml, 48 hours",28.1%
same,% Inhibition,"[5]; 0.5 μg/ml, 72 hours",0%
same,% Inhibition,"[5]; 5.0 μg/ml, 24 hours",93.0%
same,% Inhibition,"[5]; 5.0 μg/ml, 48 hours",98.2%
same,% Inhibition,"[5]; 5.0 μg/ml, 72 hours",97.8%
same,% Inhibition,[8]; 0.1 μM,9.9%
same,% Inhibition,[8]; 1.0 μM,12.5%
same,% Inhibition,[8]; 10 μM,15.7%
same,inhibition at 100 µM,"[8]; Cryptosporidium parvum, 48 h",87.5%
same,Cytotoxicity (percent toxicity),[10]; 0.1 μM,0%
same,Cytotoxicity (percent toxicity),[10]; 1.0 μM,2.4%
same,Cytotoxicity (percent toxicity),[10]; 10 μM,4.3%
same,Cytotoxicity (percent toxicity),[10]; 100 μM,54.3%
CCC(C)(NC(=O)c1cc(Br)c(N)c(Br)c1)C(=O)CCl (stereo not drawn) [Compound 14],inhibition at 0.5 µg/mL,"[4]; L929, 24 h, 0.5 μg/ml, 24 hours",29.3%
same,inhibition at 5 µg/mL,"[4]; L929, 24 h, 5.0 μg/ml, 24 hours",6.9%
same,inhibition at 0.5 µg/mL,"[4]; L929, 48 h, 0.5 μg/ml, 48 hours",79.8%
same,inhibition at 5 µg/mL,[4]; [11],61.2%
same,inhibition at 0.5 µg/mL,"[4]; L929, 72 h, 0.5 μg/ml, 72 hours",84.9%
same,inhibition at 5 µg/mL,[4]; [12],79.7%
same,inhibition at 0.5 µg/mL,"[5]; 24 h, 0.5 μg/ml, 24 hours",63.9%
same,inhibition at 5 µg/mL,"[5]; 24 h, 5.0 μg/ml, 24 hours",87.4%
same,inhibition at 0.5 µg/mL,"[5]; 48 h, 0.5 μg/ml, 48 hours",96.1%
same,inhibition at 5 µg/mL,"[5]; 48 h, 5.0 μg/ml, 48 hours",99.7%
same,inhibition at 0.5 µg/mL,"[5]; 72 h, 0.5 μg/ml, 72 hours",77.8%
same,inhibition at 5 µg/mL,"[5]; 72 h, 5.0 μg/ml, 72 hours",99.1%
same,inhibition at 24 h,"[6]; L929, 0.5 μg/ml",8.9%
same,inhibition at 48 h,"[6]; L929, 0.5 μg/ml",0%
same,inhibition at 72 h,"[6]; L929, 0.5 μg/ml",0%
same,inhibition at 24 h,"[6]; L929, 5.0 μg/ml",21.8%
same,inhibition at 48 h,"[6]; L929, 5.0 μg/ml",58.7%
same,inhibition at 72 h,"[6]; L929, 5.0 μg/ml",77.6%
same,inhibition at 24 h,[7]; 0.5 μg/ml,4.1%
same,inhibition at 48 h,[7]; 0.5 μg/ml,3.7%
same,inhibition at 72 h,[7]; 0.5 μg/ml,0%
same,inhibition at 24 h,[7]; 5.0 μg/ml,5.8%
same,inhibition at 48 h,[7]; 5.0 μg/ml,31.8%
same,inhibition at 72 h,[7]; 5.0 μg/ml,53.6%
same,inhibition at 0.1 µM,[8]; [13],2.1%
same,inhibition at 1 µM,[8]; [14],11.3%
same,inhibition at 10 µM,"[8]; Cryptosporidium parvum, 48 h, 10 μM",35.4%
same,inhibition at 100 µM,"[8]; Cryptosporidium parvum, 48 h",86.7%
same,"cytotoxicity at 48 h, 0.1 µM",[9]; 0.1 μM,21%
same,"cytotoxicity at 48 h, 1 µM",[9]; 1.0 μM,6.1%
same,"cytotoxicity at 48 h, 10 µM",[9]; 10 μM,3.9%
same,"cytotoxicity at 48 h, 100 µM",[9],22.3%
CCC(C)(NC(=O)c1cc(Cl)c2ncoc2c1)C(=O)CCl (stereo not drawn) [Compound 16],EC50,[1],2 µg/mL
same,EC50,[2],7 µg/mL
same,EC50,"[3]; 24 hours, 25° C.",0.6 µg/mL

# — US6107316A, “Method for treating protozoal infections” (priority 1998, dated 2000)
